Measurements reported in paper PMC5011342, “A high throughput drug screening assay to identify compounds that promote oligodendrocyte differentiation using acutely dissociated and purified oligodendrocyte precursor cells” (BMC Research Notes, 2016).
Read-outs that look alike come from different tables or passages of the source.

Assays:
[1] = test system: acutely dissociated and purified rat OPCs; test: Acute OL differentiation assay (MBP expression/cell, immunofluorescent image quantification); format: cell-based; conditions: for EC50: average EC50 for induction of OL differentiation from independent biological replicates, eight concentrations; for hit in OL differentiation assay, MRF-TMC: ● = confirmed hit in this paper's assay
Procedure, shortened: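 Oligodendrocyte precursor cells were enriched from P6-P7 Sprague–Dawley rat brains by immunopanning (RAN-2 and GalC depletion, O4 selection), plated at 5000 cells/well in serum-free, mitogen-free differentiation media on PDL/laminin 96-well view plates, centrifuged at 200×g, and pre-incubated 1–2 h before test compounds were added in quadruplicate. On DIV4, cells were fixed, stained for MBP and DAPI, imaged automatically, and MBP expression per cell was quantified.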

expanded OPCs = test: cells; conditions: for viability at 0.1 µM / viability at 1 µM / viability at 10 µM: Rattus norvegicus, 72 h
Procedure, shortened: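 Expanded OPCs seeded at 10,000 cells/well in differentiation media, then exposed to NCC library compounds at 10, 1 and 0.1 µM (quadruplicate, 0.1% DMSO) for three days. Viability read as alamarBlue fluorescence (560/590 nm) after 4 h at 37 °C; tunicamycin 5 ng/ml served as toxicity control.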

[2] = Rattus norvegicus, test compound at 0.4 uM, NCC library screen, sheet "All OLga data", relative to quetiapine, read-out: 0.4 uM (% Quet)
[3] = Rattus norvegicus, test compound at 2 uM, NCC library screen, sheet "All OLga data", relative to quetiapine, read-out: 2 uM (% Quet)
[4] = read-out: 0.1 µM (% DMSO), alamarBlue viability, NCC library compound at 0.1 µM, sheet "All Tox data"
[5] = read-out: 1 µM (% DMSO), alamarBlue viability, NCC library compound at 1 µM, sheet "All Tox data"
[6] = read-out: 10 µM (% DMSO), alamarBlue viability, NCC library compound at 10 µM, sheet "All Tox data"
[7] = Rattus norvegicus, test compound at 2 uM, MBP expression relative to quetiapine, NCC library screen, sheet "All OLga data", read-out: 2 uM (% Quet)
[8] = Rattus norvegicus, test compound at 10 uM, MBP expression relative to quetiapine, NCC library screen, sheet "All OLga data", read-out: 10 uM (% Quet)
[9] = alamarBlue viability of expanded OPCs, compound at 0.1 µM, relative to DMSO control
[10] = alamarBlue viability of expanded OPCs, compound at 1 µM, relative to DMSO control
[11] = alamarBlue viability of expanded OPCs, compound at 10 µM, relative to DMSO control
[12] = Rattus norvegicus, 2 uM test compound, relative to quetiapine, sheet "All OLga data", read-out: OL differentiation, 2 uM (% Quet)
[13] = Rattus norvegicus, 10 uM test compound, relative to quetiapine, sheet "All OLga data", read-out: OL differentiation, 10 uM (% Quet)
[14] = test compound at 2 uM, NCC library screen, sheet "All OLga data", relative to quetiapine
[15] = test compound at 10 uM, NCC library screen, sheet "All OLga data", relative to quetiapine
[16] = alamarBlue viability, NCC library compound at 0.1 µM, sheet "All Tox data"
[17] = alamarBlue viability, NCC library compound at 1 µM, sheet "All Tox data"
[18] = alamarBlue viability, NCC library compound at 10 µM, sheet "All Tox data"
[19] = Rattus norvegicus, 0.4 uM test compound, relative to quetiapine, sheet "All OLga data", read-out: OL differentiation, 0.4 uM (% Quet)
[20] = read-out: 0.1 µM (% DMSO), alamarBlue viability of expanded OPCs, compound at 0.1 µM, sheet All Tox data
[21] = read-out: 1 µM (% DMSO), alamarBlue viability of expanded OPCs, compound at 1 µM, sheet All Tox data
[22] = read-out: 10 µM (% DMSO), alamarBlue viability of expanded OPCs, compound at 10 µM, sheet All Tox data
[23] = Rattus norvegicus, test compound at 0.4 uM, MBP expression relative to quetiapine, NCC library screen, sheet "All OLga data", read-out: 0.4 uM (% Quet)

## COc1ccc(CC2c3cc(OC)c(OC)cc3CC[N+]2(C)CCC(=O)OCCCCCOC(=O)CC[N+]2(C)CCc3cc(OC)c(OC)cc3C2Cc2ccc(OC)c(OC)c2)cc1OC (centres unmarked) [Atracurium]
[1]; [2]
  activation at 0.4 µM: 9.5%
[1]; [3]
  activation at 2 µM: -83%
Expanded OPCs; [4]
  viability at 0.1 µM: 84.6%
Expanded OPCs; [5]
  viability at 1 µM: 75.3%
Expanded OPCs; [6]
  viability at 10 µM: 56.2%

## Nc1ncn([C@@H]2O[C@H](CO)[C@@H](O)[C@H]2O)c(=O)n1 [Azacitidine]
[1]; [7]
  activation at 2 µM: -59.1%
[1]; [8]
  activation at 10 µM: -131%
Expanded OPCs; [9]
  0.1 µM (% DMSO): 92.1 % DMSO
Expanded OPCs; [10]
  1 µM (% DMSO): 66.4 % DMSO
Expanded OPCs; [11]
  10 µM (% DMSO): 57.5 % DMSO

## CN1C(=O)COc2c(C(=O)NC3CN4CCC3CC4)cc(Cl)cc21 (centres unmarked) [Azasetron]
[1]; [12]
  activation at 2 µM: -8.9%
[1]; [13]
  activation at 10 µM: -16.8%
Expanded OPCs; [4]
  viability at 0.1 µM: 94.2%
Expanded OPCs; [5]
  viability at 1 µM: 80.9%
Expanded OPCs; [6]
  viability at 10 µM: 76.8%

## Cn1cnc([N+](=O)[O-])c1Sc1ncnc2nc[nH]c12 [Azathioprine]
[1]; [7]
  activation at 2 µM: -21.2%
[1]; [8]
  activation at 10 µM: -94.3%
Expanded OPCs; [9]
  0.1 µM (% DMSO): 90.4 % DMSO
Expanded OPCs; [10]
  1 µM (% DMSO): 91.6 % DMSO
Expanded OPCs; [11]
  10 µM (% DMSO): 63.6 % DMSO

## O=c1cnn([C@@H]2O[C@H](CO)[C@@H](O)[C@H]2O)c(=O)[nH]1 [Azauridine]
[1]; [14]
  2 uM (% Quet): -8.7 % Quet
[1]; [15]
  10 uM (% Quet): -6.4 % Quet
Expanded OPCs; [16]
  0.1 µM (% DMSO): 94.5 % DMSO
Expanded OPCs; [17]
  1 µM (% DMSO): 93.6 % DMSO
Expanded OPCs; [18]
  10 µM (% DMSO): 80.3 % DMSO

## CN1CCCC(n2nc(Cc3ccc(Cl)cc3)c3ccccc3c2=O)CC1 (centres unmarked) [Azelastine]
[1]; [19]
  activation at 0.4 µM: 1%
[1]; [12]
  activation at 2 µM: -19%
Expanded OPCs; [20]
  viability at 0.1 µM: 90.1%
Expanded OPCs; [21]
  viability at 1 µM: 51.5%
Expanded OPCs; [22]
  viability at 10 µM: 12%

## CC[C@H]1OC(=O)[C@H](C)[C@@H](O[C@H]2C[C@@](C)(OC)[C@@H](O)[C@H](C)O2)[C@H](C)[C@@H](O[C@@H]2O[C@H](C)C[C@H](N(C)C)[C@H]2O)[C@](C)(O)C[C@@H](C)CN(C)[C@H](C)[C@@H](O)[C@]1(C)O [Azithromycin]
[1]; Rattus norvegicus, test compound at 0.08 uM, MBP expression relative to quetiapine, NCC library screen, sheet "All OLga data", read-out: 0.08 uM (% Quet)
  activation at 0.08 µM: 8.2%
[1]; [23]
  activation at 0.4 µM: -7.2%
Expanded OPCs; [9]
  0.1 µM (% DMSO): 76.1 % DMSO
Expanded OPCs; [10]
  1 µM (% DMSO): 40.6 % DMSO
Expanded OPCs; [11]
  10 µM (% DMSO): 25.1 % DMSO

## CC1(C)O[C@@H]2C[C@H]3[C@@H]4CCC5=CC(=O)C=C[C@]5(C)[C@@]4(F)[C@@H](O)C[C@]3(C)[C@]2(C(=O)CO)O1 [Azmacort]
[1]; [7]
  activation at 2 µM: 24.2%
[1]; [8]
  activation at 10 µM: -114%
Expanded OPCs; [9]
  0.1 µM (% DMSO): 95.7 % DMSO
Expanded OPCs; [10]
  1 µM (% DMSO): 95.0 % DMSO
Expanded OPCs; [11]
  10 µM (% DMSO): 69.5 % DMSO

## O=C(O)CCNC(=O)c1ccc(/N=N/c2ccc(O)c(C(=O)O)c2)cc1 [Balsalazide]
[1]; [3]
  activation at 2 µM: 10.7%
[1]; Rattus norvegicus, test compound at 10 uM, NCC library screen, sheet "All OLga data", relative to quetiapine, read-out: 10 uM (% Quet)
  activation at 10 µM: 19.1%
Expanded OPCs; [4]
  viability at 0.1 µM: 88.1%
Expanded OPCs; [5]
  viability at 1 µM: 92%
Expanded OPCs; [6]
  viability at 10 µM: 85.1%

## C[C@H]1C[C@H]2[C@@H]3CCC4=CC(=O)C=C[C@]4(C)[C@@]3(Cl)[C@@H](O)C[C@]2(C)[C@@]1(O)C(=O)CO [Beclomethasone]
[1]; test compound at 2 uM, MBP expression relative to quetiapine, NCC library screen, sheet "All OLga data"
  2 uM (% Quet): -121.4 % Quet
[1]; [14]
  2 uM (% Quet): -1.4 % Quet
[1]; test compound at 10 uM, MBP expression relative to quetiapine, NCC library screen, sheet "All OLga data"
  10 uM (% Quet): -191.3 % Quet
[1]; [15]
  10 uM (% Quet): -5.2 % Quet
Expanded OPCs
  0.1 µM (% DMSO): 90.7 % DMSO
  1 µM (% DMSO): 90.4 % DMSO
  10 µM (% DMSO): 81.7 % DMSO
Expanded OPCs; [16]
  0.1 µM (% DMSO): 110.9 % DMSO
Expanded OPCs; [17]
  1 µM (% DMSO): 114.8 % DMSO
Expanded OPCs; [18]
  10 µM (% DMSO): 117.6 % DMSO

## CCN(CC)CCOC(=O)C(O)(c1ccccc1)c1ccccc1 [Benactyzine]
[1]; Rattus norvegicus, read-out: 2 uM (% Quet)
  activation at 2 µM: -1.9%
[1]; Rattus norvegicus, read-out: 10 uM (% Quet)
  activation at 10 µM: -2.1%
Expanded OPCs; read-out: 0.1 µM (% DMSO)
  viability at 0.1 µM: 100%
Expanded OPCs; read-out: 1 µM (% DMSO)
  viability at 1 µM: 88.2%
Expanded OPCs; read-out: 10 µM (% DMSO)
  viability at 10 µM: 90%

## CCOC(=O)[C@H](CCc1ccccc1)N[C@H]1CCc2ccccc2N(CC(=O)O)C1=O [Benazepril]
[1]; [12]
  activation at 2 µM: -27.7%
[1]; [13]
  activation at 10 µM: -26.2%
Expanded OPCs; [20]
  viability at 0.1 µM: 84.6%
Expanded OPCs; [21]
  viability at 1 µM: 88.2%
Expanded OPCs; [22]
  viability at 10 µM: 93.6%

## NS(=O)(=O)c1cc2c(cc1C(F)(F)F)NC(Cc1ccccc1)NS2(=O)=O (centres unmarked) [Bendroflumethiazide]
[1]; [7]
  activation at 2 µM: -41.7%
[1]; [8]
  activation at 10 µM: -47.6%
Expanded OPCs; [9]
  0.1 µM (% DMSO): 95.4 % DMSO
Expanded OPCs; [10]
  1 µM (% DMSO): 93.1 % DMSO
Expanded OPCs; [11]
  10 µM (% DMSO): 98.5 % DMSO

## COC(=O)C1=C(C)NC(C)=C(C(=O)OC2CCCN(Cc3ccccc3)C2)C1c1cccc([N+](=O)[O-])c1 (centres unmarked) [Benidipine]
[1]; [19]
  activation at 0.4 µM: 7.1%
[1]; [12]
  activation at 2 µM: 3.1%
Expanded OPCs; [20]
  viability at 0.1 µM: 84.6%
Expanded OPCs; [21]
  viability at 1 µM: 93%
Expanded OPCs; [22]
  viability at 10 µM: 11.6%

## CC(COc1ccccc1Cc1ccccc1)N1CCCCC1 (centres unmarked) [Benproperine, reference compound]
[1]; [19]
  activation at 0.4 µM: 82.1%
[1]; [12]
  activation at 2 µM: 99.4%
[1]; Rattus norvegicus
  EC50: 800 nM
[1]
  hit in OL differentiation assay, MRF-TMC: ●
Expanded OPCs; [20]
  viability at 0.1 µM: 105%
Expanded OPCs; [21]
  viability at 1 µM: 123%
Expanded OPCs; [22]
  viability at 10 µM: 20.9%

## CN1[C@@H]2CC[C@H]1C[C@@H](OC(c1ccccc1)c1ccccc1)C2 [Benzatropine]
[1]; [23]
  activation at 0.4 µM: 123%
[1]; [7]
  activation at 2 µM: 102%
Expanded OPCs; [9]
  0.1 µM (% DMSO): 139.9 % DMSO
Expanded OPCs; [10]
  1 µM (% DMSO): 133.9 % DMSO
Expanded OPCs; [11]
  10 µM (% DMSO): 38.5 % DMSO

## CCc1oc2ccccc2c1C(=O)c1cc(Br)c(O)c(Br)c1 [Benzbromarone]
[1]; [2]
  activation at 0.4 µM: -1.1%
[1]; [3]
  activation at 2 µM: 23.7%
Expanded OPCs; [4]
  viability at 0.1 µM: 95.3%
Expanded OPCs; [5]
  viability at 1 µM: 93.2%
Expanded OPCs; [6]
  viability at 10 µM: 35.6%

## CC(C)NCC(O)COc1ccc(CCOCC2CC2)cc1 (centres unmarked) [Betaxolol, reference compound]
[1]; [12]
  activation at 2 µM: 32.8%
[1]; [13]
  activation at 10 µM: 51.8%
[1]; Rattus norvegicus
  EC50: 4200 nM
[1]
  hit in OL differentiation assay, MRF-TMC: ●
Expanded OPCs; [4]
  viability at 0.1 µM: 102%
Expanded OPCs; [5]
  viability at 1 µM: 97.8%
Expanded OPCs; [6]
  viability at 10 µM: 104%

## CC(C[N+](C)(C)C)OC(N)=O (centres unmarked) [Bethanechol]
[1]; [7]
  activation at 2 µM: -1%
[1]; [8]
  activation at 10 µM: -21.7%
Expanded OPCs; [9]
  0.1 µM (% DMSO): 87.6 % DMSO
Expanded OPCs; [10]
  1 µM (% DMSO): 93.0 % DMSO
Expanded OPCs; [11]
  10 µM (% DMSO): 88.2 % DMSO
